In the SangsterLogP compilation:

Test: method code SF-AS, from Mauleón, D.; Pujol, M.; Rosell, G. (1988). B-Adrenergic antagonists: N-alkyl and N-amidoethyl (arylalkoxy)propanolamines related to propranolol. Eur J Med Chem, 23, 421-426.

SMILES | logP
CC(C)NCC(O)COC1CCCc2ccccc21 (stereo unspecified) | 3.42
CC(C)NCC(O)COCCc1ccccc1 (stereo unspecified) | 1.76
O=C(Cc1ccccc1)NCCNCC(O)COc1ccccc1 (stereo unspecified) | 0.63
CC(C)NCC(O)COCCCC(C)c1ccccc1 (stereo unspecified) | 2.95
CC(C)C(=O)NCCNCC(O)COCCOc1ccccc1 (stereo unspecified) | 0.48
CC(C)C(=O)NCCNCC(O)COc1ccccc1 (stereo unspecified) | 1.14
O=C(Cc1ccccc1)NCCNCC(O)COC1CCCc2ccccc21 (stereo unspecified) | 1.68
CC(C)NCC(O)COCc1ccccc1 (stereo unspecified) | 1.62
O=C(Cc1ccccc1)NCCNCC(O)COCC=Cc1ccccc1 (stereo unspecified) | 1.76
CC(C)(C)NCC(O)COC1CCCc2ccccc21 (stereo unspecified) | 3.55
CC(C)C(=O)NCCNCC(O)COCc1ccccc1 (stereo unspecified) | 0.63
CC(C)C(=O)NCCNCC(O)COCC=Cc1ccccc1 (stereo unspecified) | 0.51
CC(C)NCC(O)COCCOc1ccccc1 (stereo unspecified) | 1.63
O=C(Cc1ccccc1)NCCNCC(O)COCCc1ccccc1 (stereo unspecified) | 1.24
CC(C)(C)NCC(O)COCc1ccccc1 (stereo unspecified) | 1.7
O=C(Cc1ccccc1)NCCNCC(O)COCCOc1ccccc1 (stereo unspecified) | 0.75
CC(C)C(=O)NCCNCC(O)COCCCc1ccccc1 (stereo unspecified) | 1.25
CC(CCCOCC(O)CNC(C)(C)C)c1ccccc1 (stereo unspecified) | 2.29
CC(C)NCC(O)COC/C=C/c1ccccc1 (stereo unspecified) | 2.15
CC(C)(C)NCC(O)COc1ccccc1 (stereo unspecified) | 1.5
CC(C)NCC(O)COCCCc1ccccc1 (stereo unspecified) | 1.54
CC(C)(C)NCC(O)COCCc1ccccc1 (stereo unspecified) | 2.51
CC(C)(C)NCC(O)COCCOc1ccccc1 (stereo unspecified) | 2.35
O=C(Cc1ccccc1)NCCNCC(O)COCc1ccccc1 (stereo unspecified) | 1.05
CC(C)C(=O)NCCNCC(O)COC1CCCc2ccccc21 (stereo unspecified) | 1.99
CC(C)C(=O)NCCNCC(O)COCCc1ccccc1 (stereo unspecified) | 0.95
